Holding throughout (conditions): competition binding
One assay has as its target T1, FLT3 (Homo sapiens, UniProt P36888).
T1 construct: made in house
T1 sequence (P36888 27-993): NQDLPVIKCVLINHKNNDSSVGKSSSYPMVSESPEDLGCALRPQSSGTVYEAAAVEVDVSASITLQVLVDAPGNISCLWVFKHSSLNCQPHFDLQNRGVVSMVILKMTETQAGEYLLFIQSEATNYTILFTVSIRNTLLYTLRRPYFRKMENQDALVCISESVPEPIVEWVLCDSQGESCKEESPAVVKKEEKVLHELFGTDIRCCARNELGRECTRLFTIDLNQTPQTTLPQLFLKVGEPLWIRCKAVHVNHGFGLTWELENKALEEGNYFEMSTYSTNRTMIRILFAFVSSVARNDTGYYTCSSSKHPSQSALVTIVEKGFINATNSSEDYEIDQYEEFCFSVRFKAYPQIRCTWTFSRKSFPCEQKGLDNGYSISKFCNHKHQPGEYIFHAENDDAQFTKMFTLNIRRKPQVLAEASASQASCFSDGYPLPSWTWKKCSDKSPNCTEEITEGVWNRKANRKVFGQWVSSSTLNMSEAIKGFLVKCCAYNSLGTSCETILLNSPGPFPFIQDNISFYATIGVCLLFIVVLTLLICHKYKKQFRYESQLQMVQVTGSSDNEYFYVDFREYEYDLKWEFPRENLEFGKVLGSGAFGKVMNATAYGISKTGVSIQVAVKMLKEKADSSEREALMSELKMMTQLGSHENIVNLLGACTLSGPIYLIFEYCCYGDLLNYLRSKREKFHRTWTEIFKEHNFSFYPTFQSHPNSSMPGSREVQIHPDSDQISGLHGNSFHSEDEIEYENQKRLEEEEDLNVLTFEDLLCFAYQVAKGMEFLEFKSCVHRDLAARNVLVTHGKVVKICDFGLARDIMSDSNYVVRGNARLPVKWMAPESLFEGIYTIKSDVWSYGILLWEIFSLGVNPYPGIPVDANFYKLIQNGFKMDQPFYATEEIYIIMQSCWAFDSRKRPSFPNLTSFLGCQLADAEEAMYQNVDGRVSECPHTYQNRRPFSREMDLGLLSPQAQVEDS
Description: Competition binding assay, FLT3 Kd. The gist of the method: (§1)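 Read-out is quantitative PCR of kinase recovered from affinity beads after competition with test compound. Binding reached equilibrium over 1 hour at room temperature; Kd values come from eleven-point threefold serial dilutions.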

The target in a further assay is T2, KIT (Homo sapiens, UniProt P10721).
T2 construct: made in house
The assay can be described thus: Competition binding assay, KIT Kd. In outline: as §1

The target of another assay is CSF1R (Homo sapiens, UniProt P07333). The assay can be described thus: Competition binding assay, CSF1R Kd. Set-up: made in house. The gist of the method:
as §1

T2 sequence (P10721 26-976): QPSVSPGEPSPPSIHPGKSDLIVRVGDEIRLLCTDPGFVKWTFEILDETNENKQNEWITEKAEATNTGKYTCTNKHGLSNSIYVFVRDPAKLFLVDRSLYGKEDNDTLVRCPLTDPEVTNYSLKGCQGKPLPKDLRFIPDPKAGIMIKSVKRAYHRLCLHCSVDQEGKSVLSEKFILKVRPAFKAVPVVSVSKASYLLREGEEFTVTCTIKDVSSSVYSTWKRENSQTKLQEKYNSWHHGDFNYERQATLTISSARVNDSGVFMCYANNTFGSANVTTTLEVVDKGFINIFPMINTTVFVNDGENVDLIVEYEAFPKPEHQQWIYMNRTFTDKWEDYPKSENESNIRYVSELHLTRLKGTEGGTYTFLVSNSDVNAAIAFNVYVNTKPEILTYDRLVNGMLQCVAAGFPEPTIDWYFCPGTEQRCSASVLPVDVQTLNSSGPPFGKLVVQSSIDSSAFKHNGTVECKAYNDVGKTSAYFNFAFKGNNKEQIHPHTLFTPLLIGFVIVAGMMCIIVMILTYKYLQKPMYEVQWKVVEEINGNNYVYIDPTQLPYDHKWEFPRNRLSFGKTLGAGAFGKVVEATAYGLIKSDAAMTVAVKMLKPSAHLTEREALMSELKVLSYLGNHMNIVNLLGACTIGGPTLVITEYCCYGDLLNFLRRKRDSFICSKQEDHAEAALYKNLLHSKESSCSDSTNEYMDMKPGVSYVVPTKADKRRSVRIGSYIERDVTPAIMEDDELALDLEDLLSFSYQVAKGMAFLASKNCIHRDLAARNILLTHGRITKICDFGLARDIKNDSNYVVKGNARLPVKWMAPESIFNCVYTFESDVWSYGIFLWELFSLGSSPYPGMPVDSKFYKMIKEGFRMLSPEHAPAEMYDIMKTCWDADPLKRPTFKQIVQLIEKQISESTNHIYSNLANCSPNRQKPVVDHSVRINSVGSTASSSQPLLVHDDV
CSF1R, sequence (P07333 20-972): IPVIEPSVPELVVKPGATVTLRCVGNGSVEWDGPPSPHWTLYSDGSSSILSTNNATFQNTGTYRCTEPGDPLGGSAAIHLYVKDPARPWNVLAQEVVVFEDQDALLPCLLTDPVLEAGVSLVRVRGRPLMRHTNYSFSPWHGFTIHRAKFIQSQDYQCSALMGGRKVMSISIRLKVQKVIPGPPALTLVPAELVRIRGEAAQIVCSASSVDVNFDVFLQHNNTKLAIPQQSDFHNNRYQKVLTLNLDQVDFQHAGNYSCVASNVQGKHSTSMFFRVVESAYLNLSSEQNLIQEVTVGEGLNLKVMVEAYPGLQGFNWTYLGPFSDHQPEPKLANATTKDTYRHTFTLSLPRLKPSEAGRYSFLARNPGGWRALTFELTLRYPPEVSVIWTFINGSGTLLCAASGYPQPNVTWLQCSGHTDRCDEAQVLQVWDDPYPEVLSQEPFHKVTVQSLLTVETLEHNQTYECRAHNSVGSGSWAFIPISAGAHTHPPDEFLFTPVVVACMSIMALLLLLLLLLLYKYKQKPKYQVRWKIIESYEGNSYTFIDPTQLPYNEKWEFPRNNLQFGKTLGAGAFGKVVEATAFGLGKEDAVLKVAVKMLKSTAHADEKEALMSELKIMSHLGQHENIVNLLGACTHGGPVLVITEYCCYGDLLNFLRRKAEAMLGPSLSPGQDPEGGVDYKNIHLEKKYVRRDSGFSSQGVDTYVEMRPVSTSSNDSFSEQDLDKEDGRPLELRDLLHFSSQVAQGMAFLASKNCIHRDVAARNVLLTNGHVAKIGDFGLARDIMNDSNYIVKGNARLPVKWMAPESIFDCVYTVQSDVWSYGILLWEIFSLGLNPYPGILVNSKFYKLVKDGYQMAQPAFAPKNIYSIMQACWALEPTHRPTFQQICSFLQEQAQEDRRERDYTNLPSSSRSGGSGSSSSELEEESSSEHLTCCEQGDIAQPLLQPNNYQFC

With `CNC(=O)c1ccc2ncc(Cc3ccc4nc(N[C@@H]5CCCC[C@H]5O)sc4c3)n2n1` [Example 143, 3-((2-(((1R,2R)-2-hydroxycyclohexyl)amino)benzo[d]thiazol-6-yl)methyl)-N-methylimidazo[1,2-b]pyridazine-6-carboxamide], the values for the dissociation constant Kd at FLT3, at KIT and on CSF1R were 1000 to 5000 nM, 500 to 2000 nM and 5 to 20 nM, respectively.

With `OCc1ccc2ncc(Cc3ccc4nc(N[C@@H]5CCCC[C@H]5O)sc4c3)n2n1` [Example 144, (1R,2R)-2-((6-((6-(hydroxymethyl)imidazo[1,2-b]pyridazin-3-yl)methyl)benzo[d]thiazol-2-yl)amino)cyclohexanol], the Kd at FLT3 was 200 to 1000 nM; at KIT, 100 to 500 nM; on CSF1R it was no more than 5 nM.

`O[C@@H]1CCCC[C@H]1Nc1nc2ccc(Cn3cnc4cc(-n5cncn5)cnc43)cc2s1` [Example 145, (1R,2R)-2-((6-((6-(1H-1,2,4-triazol-1-yl)-3H-imidazo[4,5-b]pyridin-3-yl)methyl)benzo[d]thiazol-2-yl)amino)cyclohexanol]: the Kd was 1000 to 5000 nM at FLT3, 100 to 500 nM at KIT and no more than 5 nM on CSF1R.

In the case of `O[C@@H]1CCCC[C@H]1Nc1nc2ccc(Cn3cnc4cc(I)cnc43)cc2s1` [Example 146, (1R,2R)-2-((6-((6-iodo-3H-imidazo[4,5-b]pyridin-3-yl)methyl)benzo[d]thiazol-2-yl)amino)cyclohexanol], the figures for the Kd at FLT3, at KIT and on CSF1R were 200 to 1000 nM, no more than 100 nM and 5 to 20 nM, respectively.

For the compound `Oc1ccc2c(c1)ncn2Cc1ccc2nc(N[C@@H]3CCCC[C@H]3O)sc2c1` [Example 147, 1-((2-(((1R,2R)-2-hydroxycyclohexyl)amino)benzo[d]thiazol-6-yl)methyl)-1H-benzo[d]imidazol-5-ol], the figures for the Kd on FLT3, on KIT and on CSF1R were 200 to 1000 nM, no more than 100 nM and no more than 5 nM, respectively.

On to `O[C@@H]1CCCC[C@H]1Nc1nc2ccc(Cn3cnc4cc(F)cc(F)c43)cc2s1` [Example 148, (1R,2R)-2-((6-((5,7-difluoro-1H-benzo[d]imidazol-1-yl)methyl)benzo[d]thiazol-2-yl)amino)cyclohexanol], for which the Kd on FLT3 is 1000 to 5000 nM; at KIT, no more than 100 nM; on CSF1R it was no more than 5 nM.

Consider `O[C@@H]1CCCC[C@H]1Nc1nc2ccc(Cn3cnc4cc(OC(F)(F)F)ccc43)cc2s1` [Example 149, (1R,2R)-2-((6-((5-(trifluoromethoxy)-1H-benzo[d]imidazol-1-yl)methyl)benzo[d]thiazol-2-yl)amino)cyclohexanol], for which the results for the Kd on FLT3, at KIT and on CSF1R were 1000 to 5000 nM, 100 to 500 nM and 5 to 20 nM, respectively.

As for `COc1ccc2ncc(Cc3ccc4nc(N[C@@H]5CCCC[C@H]5O)sc4c3)n2n1` [Example 150, (1R,2R)-2-((6-((6-methoxyimidazo[1,2-b]pyridazin-3-yl)methyl)benzo[d]thiazol-2-yl)amino)cyclohexanol], the Kd on FLT3 was 200 to 1000 nM; at KIT it was no more than 100 nM; on CSF1R, no more than 5 nM.

Turning to `COc1ccc2c(c1)ncn2Cc1ccc2nc(N[C@@H]3CCCC[C@H]3O)oc2c1` [Example 151, (1R,2R)-2-((6-((5-methoxy-1H-benzo[d]imidazol-1-yl)methyl)benzo[d]oxazol-2-yl)amino)cyclohexanol], the Kd at FLT3 was 200 to 1000 nM; at KIT, no more than 100 nM; on CSF1R, 5 to 20 nM.

Consider `COc1ccc2ncn(Cc3ccc4nc(N[C@@H]5CCCC[C@H]5O)oc4c3)c2c1` [Example 152, (1R,2R)-2-((6-((6-methoxy-1H-benzo[d]imidazol-1-yl)methyl)benzo[d]oxazol-2-yl)amino)cyclohexanol], for which the Kd was no more than 200 nM on FLT3, no more than 100 nM at KIT and 5 to 20 nM at CSF1R.

`COCCOc1ccn2c(Cc3ccc4nc(N[C@@H]5CCCC[C@H]5O)sc4c3)cnc2c1` [Example 153, (1R,2R)-2-((6-((7-(2-methoxyethoxy)imidazo[1,2-a]pyridin-3-yl)methyl)benzo[d]thiazol-2-yl)amino)cyclohexanol]: the Kd is 1000 to 5000 nM on FLT3, 500 to 2000 nM at KIT and 5 to 20 nM at CSF1R.

For `O[C@@H]1CCCC[C@H]1Nc1nc2cc(F)c(Cn3cnc4cccnc43)cc2s1` [Example 154, (1R,2R)-2-((6-((3H-imidazo[4,5-b]pyridin-3-yl)methyl)-5-fluorobenzo[d]thiazol-2-yl)amino)cyclohexanol], the Kd at FLT3 lay in the range of 1000 to 5000 nM; at KIT, 500 to 2000 nM; on CSF1R it was 5 to 20 nM.

Turning to `O[C@@H]1CCCC[C@H]1Nc1nc2ccc(Cc3cnc4ccc(N5CCOCC5)nn34)cc2s1` [Example 155, (1R,2R)-2-((6-((6-morpholinoimidazo[1,2-b]pyridazin-3-yl)methyl)benzo[d]thiazol-2-yl)amino)cyclohexanol], the Kd at FLT3 was no more than 200 nM; at KIT, no more than 100 nM; on CSF1R it was no more than 5 nM.

On to `O[C@@H]1CCCC[C@H]1Nc1nc2c(Cl)cc(Cc3cnc4ccc(N5CCOCC5)nn34)cc2s1` [Example 156, (1R,2R)-2-((4-chloro-6-((6-morpholinoimidazo[1,2-b]pyridazin-3-yl)methyl)benzo[d]thiazol-2-yl)amino)cyclohexanol], for which the Kd was 1000 to 5000 nM on FLT3, greater than 2000 nM on KIT and 5 to 20 nM on CSF1R.

Consider `O[C@@H]1CCCC[C@H]1Nc1nc2ccc(Cc3cnc4sccn34)cc2s1` [Example 157, (1R,2R)-2-((6-(imidazo[2,1-b]thiazol-5-ylmethyl)benzo[d]thiazol-2-yl)amino)cyclohexanol], for which the Kd at FLT3 was greater than 5000 nM; at KIT it was greater than 2000 nM; at CSF1R it was 20 to 50 nM.

As for `O[C@@H]1CCCC[C@H]1Nc1nc2ccc(Cc3cnc4ccc(Cl)nn34)cc2s1` [Example 158, (1R,2R)-2-((6-((6-chloroimidazo[1,2-b]pyridazin-3-yl)methyl)benzo[d]thiazol-2-yl)amino)cyclohexanol], the Kd on FLT3 is 200 to 1000 nM; at KIT it was no more than 100 nM; on CSF1R, no more than 5 nM.

Regarding `O[C@@H]1CCCC[C@H]1Nc1nc2ccc(Cc3cnc4ccc(-n5cccn5)cn34)cc2s1` [Example 159, (1R,2R)-2-((6-((6-(1H-pyrazol-1-yl)imidazo[1,2-a]pyridin-3-yl)methyl)benzo[d]thiazol-2-yl)amino)cyclohexanol], the dissociation constant Kd is 1000 to 5000 nM at FLT3, 500 to 2000 nM on KIT and 5 to 20 nM at CSF1R.

For the compound `O[C@@H]1CCCC[C@H]1Nc1nc2ccc(Cn3cnc4cc(-n5cccn5)ccc43)cc2s1` [Example 160, (1R,2R)-2-((6-((5-(1H-pyrazol-1-yl)-1H-benzo[d]imidazol-1-yl)methyl)benzo[d]thiazol-2-yl)amino)cyclohexanol], the Kd on FLT3 was 200 to 1000 nM; on KIT it was no more than 100 nM; on CSF1R, no more than 5 nM.

Consider `O[C@@H]1CCCC[C@H]1Nc1nc2ccc(Cn3cnc4cc(-n5cncn5)ccc43)cc2s1` [Example 161, (1R,2R)-2-((6-((5-(1H-1,2,4-triazol-1-yl)-1H-benzo[d]imidazol-1-yl)methyl)benzo[d]thiazol-2-yl)amino)cyclohexanol], for which the Kd on FLT3 was 1000 to 5000 nM; on KIT it was 100 to 500 nM; at CSF1R, 5 to 20 nM.

As to `O[C@H]1CCCC[C@H]1Nc1nc2ccc(Cn3cnc4cc(F)cnc43)cc2s1` [Example 162, (1S,2R)-2-((6-((6-fluoro-3H-imidazo[4,5-b]pyridin-3-yl)methyl)benzo[d]thiazol-2-yl)amino)cyclohexanol], the Kd at FLT3 is 1000 to 5000 nM; on KIT it was 100 to 500 nM; on CSF1R, no more than 5 nM.

`O[C@H]1CC[C@H](Nc2nc3ccc(Cn4cnc5cc(F)cnc54)cc3s2)CC1` [Example 163, trans-4-((6-((6-fluoro-3H-imidazo[4,5-b]pyridin-3-yl)methyl)benzo[d]thiazol-2-yl)amino)cyclohexanol]: the values for the Kd on FLT3, on KIT and on CSF1R were greater than 5000 nM, 100 to 500 nM and greater than 50 nM, respectively.

Regarding `O[C@@H]1CCCC[C@H]1Nc1nc2ccc(Cn3cnc4cccnc43)c(F)c2s1` [Example 164, (1R,2R)-2-((6-((3H-imidazo[4,5-b]pyridin-3-yl)methyl)-7-fluorobenzo[d]thiazol-2-yl)amino)cyclohexanol], the equilibrium dissociation constant (Kd) on FLT3 is 1000 to 5000 nM; on KIT it was greater than 2000 nM; on CSF1R, 5 to 20 nM.
